Source: paper PMC9220351, “Evaluation of a Conformationally Constrained Indole Carboxamide as a Potential Efflux Pump Inhibitor in Pseudomonas aeruginosa” (Antibiotics, 2022)
Read-outs that look alike come from different tables or passages of the source.

Experiments:
[1] = system: P. aeruginosa ATCC 27853; format: cell-based, Pseudomonas aeruginosa
Method: All resistant colonies were verified by determining the MIC to TXA09155. […] This two-component system regulates the expression of more than 100 genes in P. aeruginosa, including genes that code for efflux components (mexX), and plays a role in the resistance to cationic antimicrobial peptides and aminoglycoside antibiotics.
The frequency of resistance studies was carried out as described previously.

[2] = system: P. aeruginosa DA7232 (gyrA-T83I, parC-S80L); assay: MIC / levofloxacin potentiation, fluoroquinolone-resistant strain; format: cell-based, Pseudomonas aeruginosa
Description: P. aeruginosa ATCC 27853 was obtained from the American Type Culture Collection (ATCC; Manassas, VA, USA). P. aeruginosa multidrug-resistant isolates were obtained from the CDC and FDA Antibiotic Resistance Isolate Bank (Atlanta, GA, USA). P. aeruginosa DA7232 (gyrA-T83I, parC-S80L) was a kind gift from Prof. Dan I. Andersson, Uppsala University, Uppsala, Sweden, and has been characterized elsewhere. P. aeruginosa strains K767 (WT), K1455 (mexAB-oprM overexpressed), K2415 (mexXY-oprM overexpressed), and K3698 (oprM∆) were obtained from Prof. Keith Poole, Queen’s University, Kingston, Ontario, Canada and have been characterized elsewhere. Bacterial cells were grown in cation-adjusted Mueller Hinton (CAMH) media, brain heart infusion broth (BHI), or tryptic soy agar (TSA) plates were all obtained from Becton, Dickinson, and Company (BD; Franklin Lakes, NJ, USA). Aztreonam, ceftazidime, moxifloxacin, levofloxacin, minocycline, tigecycline, chloramphenicol, nitrocefin, and imipenem were purchased from TOKU-E (Bellingham, WA, USA). Azithromycin was purchased from Tokyo Chemical Industry (Portland, OR, USA). Cotrimoxazole was purchased from Toronto Research Chemicals (Toronto, ON, Canada). Doxycycline and polymyxin B were purchased from Sigma-Aldrich (St. Louis, MO, USA). Ethidium bromide (EtBr) and glucose were purchased from VWR (Radnor, PA, USA). MC-04,124 and TXA01182 were synthesized at TAXIS Pharmaceuticals. Carbonyl cyanide 3-chlorophenylhydrazone (CCCP) was purchased from Enzo Life Sciences (Farmingdale, NY, USA). DiOC2 (3) and propidium iodide were obtained from Thermo Fisher Scientific (Waltham, MA, USA).
(§1) MIC assays were performed as described previously.

[3] = system: 300 P. aeruginosa clinical isolates from 63 countries; assay: Susceptibility study, IHMA panel; format: cell-based, Pseudomonas aeruginosa; conditions: for Cumulative Susceptibility % Strains at 1: concentration 1 µg/ml; for Cumulative Susceptibility % Strains at 2: concentration 2 µg/ml; for Cumulative Susceptibility % Strains at 4: concentration 4 µg/ml; for Cumulative Susceptibility % Strains at 8: concentration 8 µg/ml; for Cumulative Susceptibility % Strains at 16: concentration 16 µg/ml; for Cumulative Susceptibility % Strains at 32: concentration 32 µg/ml; for Cumulative Susceptibility % Strains at >32: concentration >32 µg/ml
Description: First, 209 clinical isolates of P. aeruginosa were collected, unbiased of susceptibility, from three US hospitals by Micromyx (now part of Microbiologics; Kalamazoo, MI, USA). IHMA (Monthey, Switzerland) collected 300 P. aeruginosa clinical isolates, also unbiased of susceptibility, from the following 63 countries: Argentina, Australia, Belgium, Brazil, Canada, Chile, Colombia, Costa Rica, Croatia, Czech Republic, Denmark, Dominican Republic, Ecuador, France, Georgia, Germany, Greece, Guatemala, Hong Kong, Hungary, India, Ireland, Israel, Italy, Japan, Jordan, Kazakhstan, Kenya, South Korea, Kuwait, Latvia, Lebanon, Lithuania, Malaysia, Mexico, Morocco, Netherlands, New Zealand, Nigeria, Panama, Philippines, Poland, Portugal, Puerto Rico, Qatar, Romania, Russia, Saudi Arabia, Serbia, Slovenia, South Africa, Spain, Sweden, Switzerland, Taiwan, Thailand, Tunisia, Turkey, Ukraine, United Kingdom, United States, Venezuela, and Vietnam. Isolates came from the following types of infection: genitourinary (urine), gastrointestinal (stomach), gastrointestinal (pancreas), […] (wound), respiratory (sputum), […] (blood), respiratory (bronchoalveolar lavage), […] (burn), respiratory (endotracheal aspirate), bodily fluids (abscess/pus), […] (impetiginous lesions), gastrointestinal (abscess) and respiratory (bronchial brushing). CF patients were not excluded.
as §1

[4] = system: P. aeruginosa ATCC 27853 inner membrane potential; assay: DiOC2 (3) membrane polarization assay; format: cell-based, Pseudomonas aeruginosa; conditions: 20 to 0.01 μM
Method: RND efflux pumps couple the influx of protons from the proton gradient across the inner membrane to the efflux of drugs and other molecules. […] The effect of TXA09155 on the proton gradient of P. aeruginosa was assessed with a fluorescence-based 3,3′-diethyloxacarbocyanine iodide [DiOC2 (3)] assay that was developed to measure membrane potential changes in Gram-negative bacteria. DiOC2 (3) is a positively charged fluorescent dye that accumulates within cells in a charge-dependent manner, shifting its fluorescence spectrum from green to red at high concentrations due to concentration-dependent dye stacking. […] Azithromycin and CCCP were used as […] controls, respectively.
P. aeruginosa membrane polarization assays were conducted as described previously using strain ATCC 27853. […] DiOC2 (3) fluorescence was recorded in a microplate reader using 450 nm excitation and 670 nm emission (for red fluorescence). Background correction for each concentration of each compound was obtained from reading the fluorescence of compounds in the resuspension buffer without cells. After background correction, fluorescence was normalized to that of the vehicle (DMSO) only. After a 30 min incubation at 37 °C, DiOC2 (3) fluorescence was recorded using a SpectraMax iD5 spectrophotometer (Molecular Devices, San Jose, CA, USA) following excitation at 450 nm. […]

[5] = system: P. aeruginosa ATCC 27853; assay: MIC / antibiotic potentiation assay, wild-type strain; conditions: for MIC: Pseudomonas aeruginosa
[6] = TXA09155 fixed […], 300 isolates
[7] = n: 300, in combination TXA09155 fixed […]

Structure (SMILES): NCCC[C@H](N)CNC(=O)c1cc2ccc(-c3ccc(F)cc3)cc2[nH]1 [TXA01182]
- Frequency of resistance, Levofloxacin (4 μg/mL) + TXA01182 ([…]) ([1]; levofloxacin 4 μg/mL + EPI […]): <3.33 × 10^−9

Structure (SMILES): Cl.NC[C@@H]1CN[C@H](CNC(=O)c2cc3ccc(-c4ccc(F)cc4)cc3[nH]2)C1 [TXA09155, N-(((2S,4R)-4-(aminomethyl)pyrrolidine-2-yl)methyl)-6-(4-fluorophenyl)-1H-indole-2-carboxamide hydrochloride salt]
- lowest concentration that potentiated levofloxacin eight-fold ([2]; strain DA7232): 3.13 µg/mL
- levofloxacin MIC50 in presence of TXA09155 [3, 6]: 0.06 µg/mL
- levofloxacin MIC90 in presence of TXA09155 [3, 6]: 8 µg/mL
- Cumulative Susceptibility % Strains at 1 ([3]; n: 300): 2%
- Cumulative Susceptibility % Strains at 2 ([3]; n: 300): 6%
- Cumulative Susceptibility % Strains at 4 ([3]; n: 300): 7%
- Cumulative Susceptibility % Strains at 8 ([3]; n: 300): 7%
- Cumulative Susceptibility % Strains at 16 ([3]; n: 300): 9%
- Cumulative Susceptibility % Strains at 32 ([3]; n: 300): 13%
- Cumulative Susceptibility % Strains at >32 ([3]; n: 300): 100%
- membrane depolarization [4]: did not lead to membrane depolarization
- fold reduction of the FoR to levofloxacin [1]: more than 149 fold
- FoR, resistance to TXA09155 alone (1×-MIC) ([1]; 50 μg/mL): 1.9 × 10^−3
- FoR, resistance to TXA09155 alone (4×-MIC) ([1]; 200 μg/mL): 1.40 × 10^−6
- MIC ([5]; ATCC27853): 50 µg/mL
- lowest active concentration for TXA09155 ([5]; antibiotic potentiation): 6.25 µg/mL

Structure (SMILES): C[C@H]1COc2c(N3CCN(C)CC3)c(F)cc3c(=O)c(C(=O)O)cn1c23 [Levofloxacin]
- MIC ([2]; Pseudomonas aeruginosa, read-out: levofloxacin MIC in the presence of […] TXA09155): 1 µg/mL
- Levofloxacin MIC ([2]; levofloxacin alone, strain DA7232): 256 µg/mL
- % R (percent resistant per breakpoints) ([3]; LVX ≤1S 2I ≥4R, n: 300): 22%
- Cumulative Susceptibility % Strains at 0.5 ([3]; concentration 0.5 µg/ml, n: 300): 60%
- Cumulative Susceptibility % Strains at 1 ([3]; n: 300): 69%
- Cumulative Susceptibility % Strains at 2 ([3]; n: 300): 78%
- Cumulative Susceptibility % Strains at 4 ([3]; n: 300): 83%
- Cumulative Susceptibility % Strains at 8 ([3]; n: 300): 84%
- Cumulative Susceptibility % Strains at 16 ([3]; n: 300): 89%
- Cumulative Susceptibility % Strains at 32 ([3]; n: 300): 95%
- Cumulative Susceptibility % Strains at >32 ([3]; n: 300): 100%
- Cumulative Susceptibility % Strains at 0.06 ([3]; concentration column 0.06 µg/ml, n: 300): 1%
- MIC50 [3, 7]: 0.5 µg/mL
- MIC90 [3, 7]: 32 µg/mL
- MIC ([5]; ATCC27853, read-out: Antibiotic MIC in Presence of TXA09155 at a Concentration of 0): 1 µg/mL
- MIC ([5]; ATCC27853, read-out: MICs, Lack of EPI): 1 µg/mL
- Antibiotic MIC in Presence of TXA09155 at a Concentration of 3.13 ([5]; TXA09155 3.13 μg/mL): 1 µg/mL
- Antibiotic MIC in Presence of TXA09155 at a Concentration of 25 ([5]; TXA09155 25 μg/mL): 0.063 µg/mL
